The NIST ThermoML archive (doi:10.1021/je500380x)
Numbers after ± are expanded uncertainties.

Assay: mn = molality of the nth substance listed, in mol/kg
Settings: 100 kPa, Liquid; for viscosity: Falling or rolling sphere viscometry; for mass density: Vibrating tube method; for electrical conductivity: Alternating current cell with electrodes

CCC(=O)OCCN1CCNCC1 [2-(piperazin-1-yl)ethyl propionate] + O
Settings | electrical conductivity [S/m] | mass density [kg/m3] | viscosity [mPa·s]
308.15 K, m1 = 0.05 | – | 995.91 ± 0.11 | –
308.15 K, m1 = 0.0999 | – | 997.73 ± 0.11 | –
308.15 K, m1 = 0.1996 | – | 1001.37 ± 0.11 | –
308.15 K, m1 = 0.3 | – | 1005.16 ± 0.11 | –
308.15 K, m1 = 0.3997 | – | 1008.83 ± 0.11 | –
308.15 K, m1 = 0.5001 | – | 1012.54 ± 0.11 | –
308.15 K, m1 = 0.5992 | – | 1016.24 ± 0.11 | –
308.15 K, m1 = 0.6993 | – | 1019.8 ± 0.11 | –
308.15 K, m1 = 0.7997 | – | 1023.89 ± 0.11 | –
308.15 K, m1 = 0.9003 | – | 1027.51 ± 0.11 | –
308.15 K, m1 = 0.9988 | – | 1031.34 ± 0.11 | 1.524 ± 0.019
308.15 K, m1 = 1.199 | – | 1038.89 ± 0.11 | 1.83 ± 0.023
308.15 K, m1 = 1.402 | – | 1046.51 ± 0.11 | 2.203 ± 0.027
308.15 K, m1 = 1.6 | – | 1053.82 ± 0.12 | 2.745 ± 0.034
308.15 K, m1 = 1.802 | – | 1061.17 ± 0.12 | 3.361 ± 0.041
308.15 K, m1 = 1.998 | – | 1068.11 ± 0.12 | 4.23 ± 0.052
308.15 K, m1 = 2.2 | – | 1074.9 ± 0.12 | 5.468 ± 0.067
308.15 K, m1 = 2.402 | – | 1081.54 ± 0.12 | 7.079 ± 0.087
308.15 K, m1 = 2.6 | – | 1087.28 ± 0.12 | 10.12 ± 0.12
308.15 K, m1 = 2.798 | – | 1092.61 ± 0.12 | 13.61 ± 0.17
308.15 K, m1 = 3.002 | – | 1097.53 ± 0.13 | 18.37 ± 0.23
313.15 K, m1 = 0.05 | 0.359 ± 0.004 | 994.07 ± 0.11 | 0.687 ± 0.009
313.15 K, m1 = 0.0999 | 0.651 ± 0.007 | 995.89 ± 0.11 | 0.714 ± 0.009
313.15 K, m1 = 0.1996 | 1.143 ± 0.011 | 999.5 ± 0.11 | 0.763 ± 0.009
313.15 K, m1 = 0.3 | 1.56 ± 0.016 | 1003.25 ± 0.11 | 0.806 ± 0.01
313.15 K, m1 = 0.3997 | 1.903 ± 0.019 | 1006.85 ± 0.11 | 0.861 ± 0.011
313.15 K, m1 = 0.5001 | 2.18 ± 0.02 | 1010.55 ± 0.11 | 0.928 ± 0.011
313.15 K, m1 = 0.5992 | 2.43 ± 0.02 | 1014.22 ± 0.11 | 0.994 ± 0.012
313.15 K, m1 = 0.6993 | 2.62 ± 0.03 | 1017.89 ± 0.11 | 1.069 ± 0.013
313.15 K, m1 = 0.7997 | 2.77 ± 0.03 | 1021.76 ± 0.11 | 1.159 ± 0.014
313.15 K, m1 = 0.9003 | 2.88 ± 0.03 | 1025.33 ± 0.11 | 1.258 ± 0.016
313.15 K, m1 = 0.9988 | 2.96 ± 0.03 | 1029.11 ± 0.11 | 1.361 ± 0.017
313.15 K, m1 = 1.199 | 3.02 ± 0.03 | 1036.57 ± 0.11 | 1.623 ± 0.02
313.15 K, m1 = 1.402 | 2.99 ± 0.03 | 1044.07 ± 0.11 | 1.944 ± 0.024
313.15 K, m1 = 1.6 | 2.84 ± 0.03 | 1051.27 ± 0.12 | 2.407 ± 0.03
313.15 K, m1 = 1.802 | 2.65 ± 0.03 | 1058.51 ± 0.12 | 2.925 ± 0.036
313.15 K, m1 = 1.998 | 2.4 ± 0.02 | 1065.33 ± 0.12 | 3.651 ± 0.045
313.15 K, m1 = 2.2 | 2.13 ± 0.02 | 1072.02 ± 0.12 | 4.68 ± 0.058
313.15 K, m1 = 2.402 | 1.843 ± 0.018 | 1078.58 ± 0.12 | 6.032 ± 0.074
313.15 K, m1 = 2.6 | 1.53 ± 0.015 | 1084.23 ± 0.12 | 8.455 ± 0.1
313.15 K, m1 = 2.798 | 1.215 ± 0.012 | 1089.49 ± 0.12 | 11.32 ± 0.14
313.15 K, m1 = 3.002 | 0.987 ± 0.01 | 1094.34 ± 0.13 | 15.06 ± 0.19
318.15 K, m1 = 0.05 | 0.392 ± 0.004 | 992.04 ± 0.11 | 0.632 ± 0.008
318.15 K, m1 = 0.0999 | 0.711 ± 0.007 | 993.83 ± 0.11 | 0.658 ± 0.008
318.15 K, m1 = 0.1996 | 1.25 ± 0.013 | 997.43 ± 0.11 | 0.7 ± 0.009
318.15 K, m1 = 0.3 | 1.707 ± 0.017 | 1001.16 ± 0.11 | 0.737 ± 0.009
318.15 K, m1 = 0.3997 | 2.08 ± 0.02 | 1004.61 ± 0.11 | 0.785 ± 0.01
318.15 K, m1 = 0.5001 | 2.39 ± 0.02 | 1008.39 ± 0.11 | 0.844 ± 0.01
318.15 K, m1 = 0.5992 | 2.66 ± 0.03 | 1012.05 ± 0.11 | 0.902 ± 0.011
318.15 K, m1 = 0.6993 | 2.86 ± 0.03 | 1015.67 ± 0.11 | 0.969 ± 0.012
318.15 K, m1 = 0.7997 | 3.04 ± 0.03 | 1019.49 ± 0.11 | 1.048 ± 0.013
318.15 K, m1 = 0.9003 | 3.17 ± 0.03 | 1023 ± 0.11 | 1.133 ± 0.014
318.15 K, m1 = 0.9988 | 3.26 ± 0.03 | 1026.75 ± 0.11 | 1.222 ± 0.015
318.15 K, m1 = 1.199 | 3.34 ± 0.03 | 1034.11 ± 0.11 | 1.452 ± 0.018
318.15 K, m1 = 1.402 | 3.31 ± 0.03 | 1041.51 ± 0.11 | 1.729 ± 0.021
318.15 K, m1 = 1.6 | 3.19 ± 0.03 | 1048.62 ± 0.12 | 2.122 ± 0.026
318.15 K, m1 = 1.802 | 2.96 ± 0.03 | 1055.75 ± 0.12 | 2.566 ± 0.032
318.15 K, m1 = 1.998 | 2.7 ± 0.03 | 1062.48 ± 0.12 | 3.183 ± 0.039
318.15 K, m1 = 2.2 | 2.4 ± 0.02 | 1069.07 ± 0.12 | 4.044 ± 0.05
318.15 K, m1 = 2.402 | 2.11 ± 0.02 | 1075.55 ± 0.12 | 5.196 ± 0.064
318.15 K, m1 = 2.6 | 1.77 ± 0.018 | 1081.13 ± 0.12 | 7.174 ± 0.088
318.15 K, m1 = 2.798 | 1.411 ± 0.014 | 1086.33 ± 0.12 | 9.493 ± 0.12
318.15 K, m1 = 3.002 | 1.17 ± 0.012 | 1091.09 ± 0.12 | 12.49 ± 0.15
323.15 K, m1 = 0.05 | 0.426 ± 0.005 | 989.83 ± 0.11 | 0.587 ± 0.007
323.15 K, m1 = 0.0999 | 0.772 ± 0.008 | 991.62 ± 0.11 | 0.61 ± 0.008
323.15 K, m1 = 0.1996 | 1.36 ± 0.014 | 995.19 ± 0.11 | 0.645 ± 0.008
323.15 K, m1 = 0.3 | 1.85 ± 0.019 | 998.9 ± 0.11 | 0.678 ± 0.008
323.15 K, m1 = 0.3997 | 2.27 ± 0.02 | 1002.44 ± 0.11 | 0.722 ± 0.009
323.15 K, m1 = 0.5001 | 2.61 ± 0.03 | 1006.07 ± 0.11 | 0.773 ± 0.01
323.15 K, m1 = 0.5992 | 2.92 ± 0.03 | 1009.7 ± 0.11 | 0.825 ± 0.01
323.15 K, m1 = 0.6993 | 3.14 ± 0.03 | 1013.4 ± 0.11 | 0.883 ± 0.011
323.15 K, m1 = 0.7997 | 3.34 ± 0.03 | 1017.08 ± 0.11 | 0.953 ± 0.012
323.15 K, m1 = 0.9003 | 3.48 ± 0.04 | 1020.5 ± 0.11 | 1.028 ± 0.013
323.15 K, m1 = 0.9988 | 3.59 ± 0.04 | 1024.22 ± 0.11 | 1.106 ± 0.014
323.15 K, m1 = 1.199 | 3.69 ± 0.04 | 1031.52 ± 0.11 | 1.307 ± 0.016
323.15 K, m1 = 1.402 | 3.64 ± 0.04 | 1038.79 ± 0.11 | 1.549 ± 0.019
323.15 K, m1 = 1.6 | 3.52 ± 0.04 | 1045.84 ± 0.11 | 1.895 ± 0.023
323.15 K, m1 = 1.802 | 3.28 ± 0.03 | 1052.89 ± 0.12 | 2.274 ± 0.028
323.15 K, m1 = 1.998 | 3 ± 0.03 | 1059.54 ± 0.12 | 2.797 ± 0.034
323.15 K, m1 = 2.2 | 2.69 ± 0.03 | 1066.05 ± 0.12 | 3.527 ± 0.043
323.15 K, m1 = 2.402 | 2.38 ± 0.02 | 1072.45 ± 0.12 | 4.525 ± 0.056
323.15 K, m1 = 2.6 | 2.01 ± 0.02 | 1077.96 ± 0.12 | 6.112 ± 0.075
323.15 K, m1 = 2.798 | 1.628 ± 0.016 | 1083.11 ± 0.12 | 8.069 ± 0.099
323.15 K, m1 = 3.002 | 1.341 ± 0.013 | 1087.78 ± 0.12 | 10.49 ± 0.13
